Test results: ChEMBL document CHEMBL3991601, “The target landscape of clinical kinase drugs” (Science, 2017)
The source made the active and inactive calls.

Legend:
[1] = target: Calcium/calmodulin-dependent protein kinase type II subunit gamma (Homo sapiens, UniProt Q13555)
[2] = target: Fibroblast growth factor receptor 1 (Homo sapiens, UniProt P11362)
[3] = target: T1, Inhibitor of nuclear factor kappa-B kinase subunit epsilon (Homo sapiens, UniProt Q14164)
T1 sequence (Q14164 whole entry): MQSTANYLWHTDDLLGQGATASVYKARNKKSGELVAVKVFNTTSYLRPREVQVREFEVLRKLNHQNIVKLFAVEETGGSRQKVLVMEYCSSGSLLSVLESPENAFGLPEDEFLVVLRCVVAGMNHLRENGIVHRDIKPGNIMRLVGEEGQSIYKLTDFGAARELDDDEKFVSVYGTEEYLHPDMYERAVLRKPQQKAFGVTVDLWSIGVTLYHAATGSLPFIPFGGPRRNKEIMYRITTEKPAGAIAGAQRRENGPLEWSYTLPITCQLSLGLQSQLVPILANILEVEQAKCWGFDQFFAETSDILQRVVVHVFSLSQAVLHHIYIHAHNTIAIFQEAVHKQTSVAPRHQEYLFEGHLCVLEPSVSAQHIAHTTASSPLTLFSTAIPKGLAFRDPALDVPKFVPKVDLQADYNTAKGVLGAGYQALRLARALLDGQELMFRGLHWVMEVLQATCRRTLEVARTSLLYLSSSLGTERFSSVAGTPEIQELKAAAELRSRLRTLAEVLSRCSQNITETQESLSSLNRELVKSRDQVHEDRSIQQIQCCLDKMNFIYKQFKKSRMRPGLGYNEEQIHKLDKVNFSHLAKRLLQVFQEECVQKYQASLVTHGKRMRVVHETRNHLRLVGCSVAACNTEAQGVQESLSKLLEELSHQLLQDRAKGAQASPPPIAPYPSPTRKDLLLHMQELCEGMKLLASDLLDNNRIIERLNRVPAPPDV

[4] = target: Mitogen-activated protein kinase 1 (Homo sapiens, UniProt P28482)
[5] = target: Serine/threonine-protein kinase N2 (Homo sapiens, UniProt Q16513)
[6] = target: T2, STE20-related kinase adapter protein alpha (Homo sapiens, UniProt Q7RTN6)
T2 sequence (Q7RTN6 whole entry): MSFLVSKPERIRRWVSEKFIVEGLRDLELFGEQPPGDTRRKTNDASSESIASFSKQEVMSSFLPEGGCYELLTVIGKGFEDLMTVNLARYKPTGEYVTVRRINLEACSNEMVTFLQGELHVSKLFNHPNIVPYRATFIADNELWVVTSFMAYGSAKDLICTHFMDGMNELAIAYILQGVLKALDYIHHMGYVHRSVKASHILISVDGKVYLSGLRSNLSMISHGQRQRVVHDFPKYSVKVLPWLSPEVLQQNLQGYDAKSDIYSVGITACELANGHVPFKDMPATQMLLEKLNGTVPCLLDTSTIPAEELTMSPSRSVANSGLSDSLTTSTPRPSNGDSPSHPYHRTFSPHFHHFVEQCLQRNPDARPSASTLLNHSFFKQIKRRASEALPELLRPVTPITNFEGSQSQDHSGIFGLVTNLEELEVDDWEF

[7] = target: T3, Uncharacterized protein FLJ45252 (Homo sapiens, UniProt Q6ZSR9); conditions: read-out: Kd apparent; k-562, colo 205, sk-n-be(2) and mv-4-11
T3 sequence (Q6ZSR9 whole entry): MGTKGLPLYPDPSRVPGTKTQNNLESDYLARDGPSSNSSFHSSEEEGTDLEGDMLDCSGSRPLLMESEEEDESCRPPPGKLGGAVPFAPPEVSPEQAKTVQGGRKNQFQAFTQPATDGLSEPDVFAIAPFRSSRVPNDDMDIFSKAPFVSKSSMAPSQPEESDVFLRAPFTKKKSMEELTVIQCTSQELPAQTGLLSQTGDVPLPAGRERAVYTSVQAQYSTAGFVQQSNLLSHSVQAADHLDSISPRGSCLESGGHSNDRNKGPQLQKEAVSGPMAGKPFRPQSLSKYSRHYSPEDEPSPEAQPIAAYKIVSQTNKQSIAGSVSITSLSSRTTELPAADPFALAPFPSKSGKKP

[8] = target: NADH dehydrogenase [ubiquinone] 1 alpha subcomplex subunit 13 (Homo sapiens, UniProt Q9P0J0)
Rab-like protein 3 = target: T4, Rab-like protein 3 (Homo sapiens, UniProt Q5HYI8)
T4 sequence (Q5HYI8 whole entry): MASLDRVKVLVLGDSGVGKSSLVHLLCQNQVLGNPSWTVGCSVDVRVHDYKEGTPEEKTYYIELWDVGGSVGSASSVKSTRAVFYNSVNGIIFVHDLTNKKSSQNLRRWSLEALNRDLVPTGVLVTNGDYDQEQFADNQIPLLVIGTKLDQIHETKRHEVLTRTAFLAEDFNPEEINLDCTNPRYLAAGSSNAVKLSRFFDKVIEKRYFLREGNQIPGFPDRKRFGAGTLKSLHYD

[9] = target: T5, Signal recognition particle receptor subunit alpha (Homo sapiens, UniProt P08240)
T5 sequence (P08240 whole entry): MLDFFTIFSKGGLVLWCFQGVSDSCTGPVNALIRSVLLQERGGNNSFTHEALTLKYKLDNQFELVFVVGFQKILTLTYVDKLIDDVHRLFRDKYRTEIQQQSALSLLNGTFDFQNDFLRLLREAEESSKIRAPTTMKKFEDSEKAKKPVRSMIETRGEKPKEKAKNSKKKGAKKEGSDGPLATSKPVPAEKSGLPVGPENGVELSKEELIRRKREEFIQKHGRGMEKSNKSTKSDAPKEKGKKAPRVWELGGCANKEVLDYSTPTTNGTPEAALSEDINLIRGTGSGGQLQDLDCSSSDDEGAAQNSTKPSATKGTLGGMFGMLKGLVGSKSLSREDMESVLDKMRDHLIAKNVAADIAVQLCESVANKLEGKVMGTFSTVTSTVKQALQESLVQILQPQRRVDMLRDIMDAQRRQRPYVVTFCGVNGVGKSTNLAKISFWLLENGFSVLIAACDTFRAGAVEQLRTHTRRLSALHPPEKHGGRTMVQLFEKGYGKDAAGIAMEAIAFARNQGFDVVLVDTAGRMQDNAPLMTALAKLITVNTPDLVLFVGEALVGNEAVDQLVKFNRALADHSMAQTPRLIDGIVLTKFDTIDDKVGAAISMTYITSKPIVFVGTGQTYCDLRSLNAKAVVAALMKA
Note: in the data inactive means no Kd found up to 30 µM.

Sequence of Fibroblast growth factor receptor 1 (P11362 whole entry): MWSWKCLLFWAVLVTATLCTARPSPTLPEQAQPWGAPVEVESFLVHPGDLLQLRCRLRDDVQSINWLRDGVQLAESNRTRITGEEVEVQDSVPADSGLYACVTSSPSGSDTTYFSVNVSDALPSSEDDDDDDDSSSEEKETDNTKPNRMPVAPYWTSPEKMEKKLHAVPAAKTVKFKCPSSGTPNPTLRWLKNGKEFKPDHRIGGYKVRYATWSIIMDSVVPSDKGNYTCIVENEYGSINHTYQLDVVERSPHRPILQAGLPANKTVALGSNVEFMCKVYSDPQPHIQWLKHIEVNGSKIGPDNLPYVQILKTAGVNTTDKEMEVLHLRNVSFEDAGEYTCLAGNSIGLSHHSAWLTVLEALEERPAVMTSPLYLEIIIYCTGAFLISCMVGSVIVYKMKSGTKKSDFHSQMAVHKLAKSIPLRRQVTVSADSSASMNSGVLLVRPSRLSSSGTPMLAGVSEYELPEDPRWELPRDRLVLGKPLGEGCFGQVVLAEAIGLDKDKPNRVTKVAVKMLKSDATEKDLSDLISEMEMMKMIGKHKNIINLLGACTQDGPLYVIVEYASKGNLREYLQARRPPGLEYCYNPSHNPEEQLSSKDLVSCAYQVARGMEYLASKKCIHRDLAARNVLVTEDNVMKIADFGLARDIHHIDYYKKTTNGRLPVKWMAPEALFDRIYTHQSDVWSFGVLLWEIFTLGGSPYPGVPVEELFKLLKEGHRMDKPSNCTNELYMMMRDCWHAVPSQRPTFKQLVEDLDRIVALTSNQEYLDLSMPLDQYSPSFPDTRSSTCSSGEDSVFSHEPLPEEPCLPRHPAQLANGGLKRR
Sequence of Calcium/calmodulin-dependent protein kinase type II subunit gamma (Q13555 whole entry): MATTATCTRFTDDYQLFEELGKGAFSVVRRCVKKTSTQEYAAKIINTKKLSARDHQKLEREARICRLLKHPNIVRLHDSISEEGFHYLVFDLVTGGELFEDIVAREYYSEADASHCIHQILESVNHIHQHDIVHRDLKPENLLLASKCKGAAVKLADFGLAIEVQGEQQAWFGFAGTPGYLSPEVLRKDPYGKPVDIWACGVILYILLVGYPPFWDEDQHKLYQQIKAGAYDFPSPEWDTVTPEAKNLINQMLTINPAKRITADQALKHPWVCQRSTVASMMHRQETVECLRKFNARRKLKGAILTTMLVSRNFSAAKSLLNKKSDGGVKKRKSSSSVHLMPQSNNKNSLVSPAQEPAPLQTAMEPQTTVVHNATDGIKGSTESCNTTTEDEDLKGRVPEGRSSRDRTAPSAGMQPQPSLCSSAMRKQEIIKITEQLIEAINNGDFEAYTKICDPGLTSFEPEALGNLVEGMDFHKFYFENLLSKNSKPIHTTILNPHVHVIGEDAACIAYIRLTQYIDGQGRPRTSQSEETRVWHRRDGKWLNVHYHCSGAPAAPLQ
Sequence of Mitogen-activated protein kinase 1 (P28482 whole entry): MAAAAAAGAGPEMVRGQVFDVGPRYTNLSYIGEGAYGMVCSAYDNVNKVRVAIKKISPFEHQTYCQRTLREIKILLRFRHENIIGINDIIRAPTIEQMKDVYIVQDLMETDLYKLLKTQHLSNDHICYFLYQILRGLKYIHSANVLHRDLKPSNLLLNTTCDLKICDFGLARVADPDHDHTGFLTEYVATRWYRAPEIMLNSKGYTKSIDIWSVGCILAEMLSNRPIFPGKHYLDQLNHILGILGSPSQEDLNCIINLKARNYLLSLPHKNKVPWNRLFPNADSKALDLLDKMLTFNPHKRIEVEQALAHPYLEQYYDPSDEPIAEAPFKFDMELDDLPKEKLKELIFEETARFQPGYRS
Sequence of Serine/threonine-protein kinase N2 (Q16513 whole entry): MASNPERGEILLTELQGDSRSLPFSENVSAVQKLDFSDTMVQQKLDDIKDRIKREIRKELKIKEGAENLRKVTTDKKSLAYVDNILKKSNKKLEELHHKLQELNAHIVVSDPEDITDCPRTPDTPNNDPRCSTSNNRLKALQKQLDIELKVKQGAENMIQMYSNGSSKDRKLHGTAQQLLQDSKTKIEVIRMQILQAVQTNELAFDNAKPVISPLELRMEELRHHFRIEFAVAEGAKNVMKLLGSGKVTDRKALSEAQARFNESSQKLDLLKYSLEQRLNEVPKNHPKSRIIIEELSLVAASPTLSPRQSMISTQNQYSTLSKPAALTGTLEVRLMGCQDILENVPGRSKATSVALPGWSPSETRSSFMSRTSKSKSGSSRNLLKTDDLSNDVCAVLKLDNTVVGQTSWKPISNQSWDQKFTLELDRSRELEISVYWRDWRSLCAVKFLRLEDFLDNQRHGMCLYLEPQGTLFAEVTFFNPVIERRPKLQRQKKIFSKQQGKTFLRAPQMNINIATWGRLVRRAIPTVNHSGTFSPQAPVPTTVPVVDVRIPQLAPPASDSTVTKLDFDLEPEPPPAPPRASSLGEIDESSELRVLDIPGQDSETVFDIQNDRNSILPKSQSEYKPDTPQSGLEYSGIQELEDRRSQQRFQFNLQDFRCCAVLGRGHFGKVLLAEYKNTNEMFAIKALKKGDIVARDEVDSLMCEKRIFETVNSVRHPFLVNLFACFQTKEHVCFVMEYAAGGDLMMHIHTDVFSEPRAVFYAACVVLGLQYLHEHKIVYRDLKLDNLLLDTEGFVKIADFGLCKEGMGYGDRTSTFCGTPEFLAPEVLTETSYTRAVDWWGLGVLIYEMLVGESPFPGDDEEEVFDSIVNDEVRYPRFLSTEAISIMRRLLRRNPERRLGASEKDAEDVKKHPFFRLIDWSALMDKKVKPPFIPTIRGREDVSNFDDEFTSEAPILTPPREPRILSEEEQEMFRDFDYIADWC
Sequence of NADH dehydrogenase [ubiquinone] 1 alpha subcomplex subunit 13 (Q9P0J0 whole entry, one chain of several): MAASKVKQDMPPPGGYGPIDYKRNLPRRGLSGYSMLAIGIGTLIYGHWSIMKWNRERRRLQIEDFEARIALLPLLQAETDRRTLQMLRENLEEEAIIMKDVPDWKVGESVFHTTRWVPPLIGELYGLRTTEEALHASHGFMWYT

SMILES | Kd [5] | Kd [6] | Kd [7] | Kd [8] | Kd (Rab-like protein 3) | Kd [9] | Kd [1] | Kd [2] | Kd [3] | Kd [4]
Cc1c(NC(=O)OC[C@@H]2COCCN2)cn2ncnc(Nc3ccc4c(cnn4Cc4cccc(F)c4)c3)c12 [AC-480] | > 30 µM (inactive) | > 30 µM (inactive) | > 30 µM (inactive) |  |  |  | > 30 µM (inactive) | > 30 µM (inactive) | > 30 µM (inactive) | > 30 µM (inactive)
CN(c1ncccc1CNc1nc(Nc2ccc3c(c2)CC(=O)N3)ncc1C(F)(F)F)S(C)(=O)=O [PF-00562271] |  | > 30 µM (inactive) | > 30 µM (inactive) | > 30 µM (inactive) | > 30 µM (inactive) | > 30 µM (inactive) |  |  |  | 1.24 µM (active)
C[C@]1(O)C[C@@H](c2nc(-c3ccc4ccc(-c5ccccc5)nc4c3)c3c(N)nccn32)C1 [LINSITINIB] |  | > 30 µM (inactive) | > 30 µM (inactive) | > 30 µM (inactive) | > 30 µM (inactive) | > 30 µM (inactive) |  |  | > 30 µM (inactive) | 
Cn1c(=O)n(-c2ccc(C(C)(C)C#N)cc2)c2c3cc(-c4cnc5ccccc5c4)ccc3ncc21 [DACTOLISIB] |  | > 30 µM (inactive) | > 30 µM (inactive) | > 30 µM (inactive) | > 30 µM (inactive) | > 30 µM (inactive) | > 30 µM (inactive) |  |  | > 30 µM (inactive)
COc1cc(F)c(F)c(Nc2ccc(I)cc2F)c1NS(=O)(=O)C1(C[C@H](O)CO)CC1 [REFAMETINIB] | > 30 µM (inactive) | > 30 µM (inactive) | > 30 µM (inactive) | > 30 µM (inactive) | > 30 µM (inactive) |  | > 30 µM (inactive) | > 30 µM (inactive) | > 30 µM (inactive) | > 30 µM (inactive)
COc1cc2c(Oc3ccc4[nH]c(C)cc4c3F)ncnc2cc1OCCCN1CCCC1 [CEDIRANIB] |  | > 30 µM (inactive) |  | > 30 µM (inactive) |  | > 30 µM (inactive) |  |  |  | 
CN1CCN(c2nc(C3=C(c4c[nH]c5ccccc45)C(=O)NC3=O)c3ccccc3n2)CC1 [SOTRASTAURIN] |  | > 30 µM (inactive) | > 30 µM (inactive) | > 30 µM (inactive) | > 30 µM (inactive) |  | > 30 µM (inactive) | > 30 µM (inactive) | > 30 µM (inactive) | > 30 µM (inactive)
CC(C)CC(=O)Nc1[nH]nc2c1CN(C(=O)C1CCN(C)CC1)C2(C)C [PHA-793887] | > 30 µM (inactive) | > 30 µM (inactive) | > 30 µM (inactive) | > 30 µM (inactive) |  |  | > 30 µM (inactive) | > 30 µM (inactive) | > 30 µM (inactive) | 
C=CCn1c(=O)c2cnc(Nc3ccc(N4CCN(C)CC4)cc3)nc2n1-c1cccc(C(C)(C)O)n1 [ADAVOSERTIB] |  | > 30 µM (inactive) | > 30 µM (inactive) | > 30 µM (inactive) | > 30 µM (inactive) | > 30 µM (inactive) | > 30 µM (inactive) |  |  | > 30 µM (inactive)
COc1cc2c(N3CCN(C(=O)Nc4ccc(OC(C)C)cc4)CC3)ncnc2cc1OCCCN1CCCCC1 [TANDUTINIB] |  | > 30 µM (inactive) | > 30 µM (inactive) | > 30 µM (inactive) | > 30 µM (inactive) | > 30 µM (inactive) |  |  |  | 
CN(C)C/C=C/C(=O)Nc1cc2c(Nc3ccc(F)c(Cl)c3)ncnc2cc1O[C@H]1CCOC1 [AFATINIB] |  | > 30 µM (inactive) | > 30 µM (inactive) | > 30 µM (inactive) | > 30 µM (inactive) | > 30 µM (inactive) |  |  |  | 
O=S(=O)(c1cccc2c(O)nccc12)N1CCCNCC1 [HYDROXYFASUDIL] | 2.26 µM (active) | > 30 µM (inactive) | > 30 µM (inactive) | > 30 µM (inactive) | > 30 µM (inactive) | > 30 µM (inactive) | > 30 µM (inactive) |  | > 30 µM (inactive) | 
Cn1cnc2c(F)c(Nc3ccc(Br)cc3Cl)c(C(=O)NOCCO)cc21 [SELUMETINIB] |  | > 30 µM (inactive) | 0.807 µM (active) | > 30 µM (inactive) | > 30 µM (inactive) | > 30 µM (inactive) |  |  |  | 
CC1(C)CNc2cc(NC(=O)c3cccnc3NCc3ccncc3)ccc21 [MOTESANIB] |  | > 30 µM (inactive) | > 30 µM (inactive) | > 30 µM (inactive) | > 30 µM (inactive) | > 30 µM (inactive) |  |  |  | 
COc1ccc(-c2ccc3ncc4c(c3c2)n(-c2ccc(N3CCNCC3)c(C(F)(F)F)c2)c(=O)n4C)cn1 [BGT-226 FREE BASE] | > 30 µM (inactive) | > 30 µM (inactive) | > 30 µM (inactive) | > 30 µM (inactive) |  |  | > 30 µM (inactive) | > 30 µM (inactive) | > 30 µM (inactive) | > 30 µM (inactive)
O=S(=O)(c1cccc2cnccc12)N1CCCNCC1 [FASUDIL] |  | > 30 µM (inactive) | > 30 µM (inactive) | > 30 µM (inactive) |  | > 30 µM (inactive) | > 30 µM (inactive) |  |  | 
CCN(CCCOc1ccc2c(Nc3cc(CC(=O)Nc4cccc(F)c4)n[nH]3)ncnc2c1)CCOP(=O)(O)O [BARASERTIB] | > 30 µM (inactive) | > 30 µM (inactive) | > 30 µM (inactive) | > 30 µM (inactive) | > 30 µM (inactive) |  | > 30 µM (inactive) |  |  | > 30 µM (inactive)

Further lines, with some results ahead:

Kd [5] | Kd [6] | Kd [7] | Kd [8] | Kd (Rab-like protein 3) | Kd [9] | SMILES | Kd [1] | Kd [2] | Kd [3] | Kd [4]
> 30 µM (inactive) | > 30 µM (inactive) |  |  | > 30 µM (inactive) |  | COc1cccc(Nc2ncnn3ccc(CN4CC[C@@H](N)[C@H](O)C4)c23)c1 [BMS-690514] | 0.738 µM (active) | > 30 µM (inactive) | > 30 µM (inactive) | > 30 µM (inactive)
 | > 30 µM (inactive) | > 30 µM (inactive) |  | > 30 µM (inactive) | > 30 µM (inactive) | C[C@@]1(C(=O)Nc2ccc(F)nc2)CCCN1c1nc(Nc2cc(C3CC3)n[nH]2)c2cccn2n1 [BMS-754807] |  |  |  | 
> 30 µM (inactive) |  |  |  | > 30 µM (inactive) | > 30 µM (inactive) | CCOc1ccn(-c2ccc(F)cc2)c(=O)c1C(=O)Nc1ccc(Oc2ccnc(N)c2Cl)c(F)c1 [BMS-777607] |  | > 30 µM (inactive) |  | > 30 µM (inactive)
